Our source for the EC50, IC50 and outcome values is PubChem BioAssay AID179 (DTP/NCI, 2004).

The subject of the assay is CEM cells HIV-1 protection, formazan growth assay. Kind of assay: NCI AIDS Antiviral Assay. Particulars: for IC50: measured here: growth of uninfected CEM cells. A digest of the protocol: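 CEM (human) cells, HIV-1 infected vs uninfected, 5-point dosing, formazan growth read-out. Retest threshold 50% protection.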

“And” between values parts separate entries of the source, which are not always exact repeats. Identical values can stand only once. The source made the active and inactive calls.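 How the source made its calls: active means compounds giving half or more protection of infected cells from virus-caused growth loss, again on retest; inactive means the rest.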 Where only a bound is given, the exact number is not on record here.

As for `CCN(CC)Cc1cc(Nc2c3ccccc3nc3c4ccccc4n(C)c23)cc(CN(CC)CC)c1O`, the EC50 was above 155 µM and the IC50 is 3.09 µM.

On to `Clc1ccc(/C=N/Nc2nnc3c4ccccc4c4ncccc4c3n2)cc1`, for which the EC50 was above 50.1 µM and the IC50 is above 50.1 µM. With `CCCCCCCC(=O)OC(CBr)COC(=O)C(C)(C)C` (centres undefined), the EC50 was above 251 µM and the IC50 stood at 191 µM. On to `FC(F)(F)P1C2C=CC(CC2)C1(F)F` (centres undefined), for which the EC50 is above 251 µM and the IC50 is above 251 µM. Turning to `CCOC(=O)CCn1cnc(N)n1`, the result was inactive.

`Nn1c(-c2ccccc2)n[nH]c1=O`: the EC50 is above 200 µM and the IC50 was above 200 µM. In turn, `O=[As](O)(O)c1ccccc1F` showed an EC50 above 200 µM and an IC50 of 141 µM. For `Cn1c(COC(=O)NC2CCCCC2)c(COC(=O)NC2CCCCC2)c2ccc3ccccc3c21`, in that order: above 174 µM and 2.82 µM. For the molecule `Nc1ccn(C2CCC3(CO)CC23)c(=O)n1` (centres undefined), the EC50 was above 50.1 µM and the IC50 was above 50.1 µM.

`CC(=O)NC(CC(C)C(=O)O)(C(=O)O)C(=O)O` (centres undefined): the EC50 was above 200 µM and the 50% inhibitory concentration (IC50) was above 200 µM. Take `O=C1C2c3[nH]c4ccccc4c3C3CCCCCC3C2C(=O)N1c1ccccc1` (centres undefined): the result was inactive. With `C/C(=C\CNc1ncnc2c1ncn2CCC(=O)OC(C)(C)C)CO`, the EC50 was above 200 µM and the IC50 was above 200 µM. Regarding `NC(=O)c1cccc([C@@H]2O[C@H](CO)[C@@H](O)[C@H]2O)c1`, the EC50 was above 977 µM and the IC50 was 5.37 µM. As to `CC1CCC2CC(=O)OC([C@@H]3C(=O)O[C@@H](C4=CCCC4)C4C(C)CCC43)C12` (some centres undefined), the EC50 is above 10 µM and the IC50 was above 10 µM. With `O=C1CN(/C=C(/c2ccc(Cl)cc2)S(=O)(=O)Cc2ccc(Cl)cc2)C(=S)N1`, the EC50 was above 200 µM and the IC50 is above 200 µM. In the case of `CN(C)c1ccc(/C=C(\C#N)C(=O)c2ccccc2)cc1`, the EC50 is above 29.5 µM and the IC50 was 6.17 µM.

For the molecule `CCOC(=O)C1=NN(c2ccccc2)C(=O)/C1=C\N1CC(=O)NC1=S`, the EC50 is above 200 µM and the IC50 was above 100 µM. For `Clc1ccc2nsnc2c1`, the outcome was inactive. For the molecule `CCSSC1(C)C(=O)N2CCCC2C(=O)N1C` (centres undefined), the EC50 is above 200 µM and the IC50 amounted to 11.5 µM.

`NC(=S)C1=C(N)Oc2c(c(=O)oc3ccccc23)C1c1ccc(Br)cc1` (centres undefined): the EC50 is above 200 µM and the IC50 was found to be 126 µM.

On to `CCCNCCOc1nc(Cl)c(Cl)cc1Cl`, for which the EC50 was above 200 µM and the IC50 was found to be 126 µM. As to `Cc1nc2ccccc2c(=O)n1-c1ccccc1`, the EC50 was above 1050 µM and the IC50 is 631 µM. Consider `Cc1cc(N=Nc2ccc(NC(=O)c3ccc(NC(=O)c4ccccc4)cc3)c3ccc(S(=O)(=O)O)cc23)ccc1N=Nc1ccc2c(O)cc(S(=O)(=O)O)cc2c1`, for which the EC50 was above 50.1 µM and the IC50 is above 50.1 µM. Take `O=C1c2cc3c(cc2CC12Cc1ccccc1C2)CCC3`: the EC50 is above 200 µM and the IC50 was found to be 28.2 µM. The like results for `CCn1nc(C)c2c1C(=O)NC(C)C(=O)N2` (centres undefined) were, in that order, above 200 µM and above 200 µM. On to `CC(C(=O)COCc1ccccc1)P1(=O)OC(C)(C)CN1C(C)(C)C` (centres undefined), for which the EC50 was above 200 µM and the IC50 came to 132 µM. Regarding `CCCCCCCCOC1C(O)C(O)C(O)C(O)C12CO2` (centres undefined), the EC50 is above 200 µM and the IC50 is 75.9 µM. Turning to `CC1(C)CCc2cc3c(cc2O1)OC(C)(C)CC3=O`, the outcome was inactive.

In the case of `Fc1ccccc1C1SCc2nc3ncccc3n21` (centres undefined), the EC50 was above 95.5 µM and the IC50 is above 95.5 µM. Turning to `CCOC(=O)C1C(=O)[C@H](C(=O)OC)C2CCCC3CCCC1N32` (some centres undefined), the EC50 is above 200 µM and the IC50 was above 200 µM. Take `CCCC1C(C#N)(C#N)C1(C#N)C#N`: the EC50 is above 200 µM and the 50% inhibitory concentration (IC50) stood at 2.69 µM.

As to `CCOC(=O)C(CO)c1nc2c([nH]c1=O)c(=O)n(C)c(=O)n2C` (centres undefined), the EC50 is above 200 µM and the IC50 is above 200 µM. With `C=C(C)CN1CCCN(S(=O)(=O)c2ccc(C)cc2)CC(=C)CN(S(=O)(=O)c2ccc(C)cc2)CCC1`, the EC50 is above 200 µM and the IC50 came out at 5.25 µM. Consider `CCOC(=O)c1cc(Br)c(-c2onc(C)c2Br)[nH]1`, for which the EC50 is above 200 µM and the IC50 is above 200 µM.

As to `CCC(C)CCOC(=O)c1ccc(N=Cc2ccc(C=Nc3ccc(C(=O)OCCC(C)CC)cc3)cc2)cc1` (centres undefined), the EC50 is above 6.61 µM and the IC50 was above 6.61 µM. As to `O=C(O)CCc1nc(-c2ccccc2)c(-c2ccccc2)o1`, the EC50 was above 200 µM and the IC50 is above 200 µM. Consider `COC(=O)CCC1=NCC(C)(C)O1`, for which the EC50 was above 200 µM and the IC50 was above 200 µM. With `CC(C)(C)C1=CC(=O)C(Cl)(C(C)(C)C)C(Cl)C1=O` (centres undefined), the EC50 was above 20 µM and the IC50 was 1.15 µM. On to `Cc1cccc(/C=N/NC(=S)Nc2ccc(Cl)cc2)n1`, for which the EC50 was above 200 µM and the IC50 is 3.16 µM. On to `NC(N)=NN=C1CCCCC1`, for which the EC50 is above 200 µM and the IC50 was above 200 µM. For `C=CCOc1ccc(C2C(C(=O)OC)C(=O)CC(O)(c3ccccc3)C2C(=O)OC)cc1OC` (centres undefined), the EC50 is above 100 µM and the IC50 is above 100 µM.

As for `CCc1cc(CCC(=O)Nc2c(C)cccc2C)nc(NC#N)n1`, the result was inactive. For the molecule `CCCNC(=O)Nc1c([N+](=O)[O-])cc(C(F)(F)F)cc1[N+](=O)[O-]`, the outcome was inactive. In the case of `COC(=O)C1=C(C(=O)OC)C(Cc2ccccc2)(OO)OC1=O` (centres undefined), the EC50 is above 200 µM and the IC50 came to 0.955 µM.

As for `COC1/C=C/OC2(C)Oc3c(C)c(O)c4c(O)c(c(/C=N/NC5OC(COC(=O)c6ccccc6)C(OC(=O)c6ccccc6)C5OC(=O)c5ccccc5)c(O)c4c3C2=O)NC(=O)C(C)=C/C=C/C(C)C(O)C(C)C(O)C(C)C(OC(C)=O)C1C` (centres undefined), the EC50 was above 200 µM and the IC50 came to 14.5 µM. Turning to `O=Cc1ccc(-c2ccc(-c3ccc(CO)s3)o2)s1`, the outcome was inactive. For the molecule `O=S(=O)(O)SCc1ccccc1CSS(=O)(=O)O`, the EC50 is above 200 µM and the IC50 was above 200 µM. Take `COC(=O)C([C@H]1CC[C@H](OCc2ccccc2)[C@@]1(O)COCc1ccccc1)C(C)(O)CCc1ccccc1` (some centres undefined): the outcome was inactive. For the molecule `COC(OC)[C@@H]1OC[C@H](n2cnc3c(N)ncnc32)[C@H]1O`, the EC50 is above 200 µM and the IC50 is above 200 µM. For the molecule `OCC1OC(NC(=S)NCCC(F)(F)C(F)(F)C(F)(F)C(F)(F)C(F)(F)C(F)(F)F)C(O)C(O)C1O` (centres undefined), the EC50 is above 200 µM and the IC50 came to 120 µM. As for `O=C1c2c(O)ccc(O)c2C(=O)c2c(NCCNCCO)ccc(NCCNCCO)c21`, the EC50 is above 0.708 µM; the IC50 was 0.00186 µM and 0.00251 µM. In the case of `CC(C)[C@@H]1CC[C@]2(COC(=O)CC3(CC(=O)O)CCCC3)CC[C@]3(C)[C@H](CC[C@@H]4[C@@]5(C)CC[C@H](OC(=O)CC6(CC(=O)O)CCCC6)C(C)(C)[C@@H]5CC[C@]43C)[C@@H]12`, the EC50 was above 200 µM and the IC50 was 6.46 µM.

Regarding `C=CC1=CC2(O[Si](C(C)C)(C(C)C)C(C)C)CCC1C(COCc1ccccc1)C2C(=O)O` (centres undefined), the EC50 is above 28.8 µM and the IC50 worked out at 20 µM. For the molecule `CCN1CCC(C)OP1(=O)Cc1ccccc1` (centres undefined), the EC50 is above 200 µM and the IC50 was above 200 µM.

For the molecule `O=c1n(-c2ccccc2)c(=O)n2n1C1/C=C\C=C/C2C2CCC21` (centres undefined), the EC50 was above 200 µM and the IC50 is above 200 µM. For the molecule `O=C(O)C1CC=CCC1c1c2ccc(=O)cc-2oc2cc(O)ccc12` (centres undefined), the EC50 was found to be 3.98 µM and the 50% inhibitory concentration (IC50) came to 141 µM.

On to `CCN(C)N=Nc1ccc(C(N)=O)cc1`, for which the EC50 was above 1200 µM and the half-inhibitory concentration (IC50) came out at 617 µM.

With `Nc1ncnc2c1nnn2C1C=CC(CP(=O)(O)O)C1` (centres undefined), the EC50 was above 200 µM and the IC50 was above 200 µM. `Cc1cc(S(=O)(=O)Nc2nnc3c4ccccc4cnn23)c(S)cc1Cl`: the EC50 was 56.2 µM and the IC50 is 1170 µM. As for `C/C(=N\NC(=S)N1CCN(c2ccccn2)CC1)c1nccs1`, the EC50 is above 145 µM and the half-inhibitory concentration (IC50) worked out at 0.646 µM. Consider `COc1ccc(OC)c(/C=C/c2ccnc3ccccc23)c1`, for which the EC50 is 0.0631 µM and the IC50 is 1.29 µM. In the case of `N#C/C=C\c1ccc(C#N)cc1`, the EC50 is above 64.6 µM and the IC50 is above 64.6 µM. `CCOC(=O)/C(C)=C(/O)C(=O)OCC`: the EC50 was 214 µM and the IC50 turned out to be 1120 µM. For `N#Cc1c(NC(=S)NC(=O)c2ccccc2)nc2c(c1-c1ccccc1)CCCC2`, the EC50 is above 200 µM and the IC50 amounted to 141 µM. `COc1ccccc1C=NC12CC3CC(CC(C3)C1)C2`: the EC50 was above 132 µM and the IC50 was 110 µM. As for `O=C(CCCc1ccccc1)NO`, the result was inactive. Regarding `CCOc1ccc(NC(=O)CC2SC(=Nc3ccc(Cl)cc3)NC2=O)cc1` (centres undefined), the EC50 was above 617 µM and the IC50 was above 617 µM.

`C=C1C(=O)OC2CC(C)C3(O)C=C(C(C)=O)C4(OC3CC12)C(=O)OC1CC(C)C(/C=C\C(C)=O)=CCC14` (centres undefined): the EC50 is above 37.2 µM and the IC50 stood at 19.1 µM.

Regarding `O=C(NO)NCCCl`, the EC50 is above 200 µM and the concentration for half-maximal inhibition (IC50) was above 200 µM. `CN1c2ccccc2C2=C(C(=O)CCS2)S1(=O)=O`: the EC50 was above 35.5 µM and the IC50 is above 35.5 µM. Take `Cc1ccccc1NCN1C(=O)S/C(=C2\C(=O)N(C)c3ccc(Br)cc32)C1=O`: the EC50 is above 200 µM and the IC50 was found to be 11.7 µM. Consider `COC(=O)C1(Cc2ccc3c(c2)CCC3)Cc2ccc3c(c2C1=O)CCC3` (centres undefined), for which the EC50 is above 20 µM and the IC50 was determined as 9.55 µM. Take `O=[N+]([O-])c1cccc2nc3ccccc3c(NCCC[N+]3([O-])CCCCC3)c12`: the EC50 is above 0.2 µM and the IC50 came out at 0.126 µM. As for `COc1ccc(NC(=S)N/N=C/c2cccc(C)n2)cc1`, the EC50 was above 200 µM and the IC50 came out at 4.9 µM.
